# Reference: ChEMBL document CHEMBL4052678, “Urotensin core mimics that modulate the biological activity of urotensin-II related peptide but not urotensin-II” (Bioorg Med Chem Lett, 2017)
# Active and inactive are the calls of the source. No cut-off for these calls is given here. Starred links: 1 amine or outer side, 2 acyl side, 3 side chain; linkers in the order of their positions; H or OH if unused. Non-standard residues stand in square brackets, D forms with d. Residues, ends and D or L forms follow the SMILES beside them. X1 = O=C(Cn1cc(CN[*:1])nn1)[*:2]
# What was measured:
# Assay type in all cases: functional
# Aorta [1] = test: Inhibition of urotensin II-related peptide-induced contraction in Sprague-Dawley rat aortic rings assessed as Emax for urotensin II-related peptide at 30 umol relative to KCl-induced contraction (reference value: 113 +/- 2%)
# Aorta [2] = test: Inhibition of human urotensin II-induced contraction in Sprague-Dawley rat aortic rings assessed as Emax for urotensin II relative to KCl-induced contraction (reference value: 8.59 +/- 0.08)
# Aorta [3] = test: Inhibition of human urotensin II-induced contraction in Sprague-Dawley rat aortic rings assessed as Emax for urotensin II at 30 umol relative to KCl-induced contraction (reference value: 104 +/- 4%)
# Aorta [4] = test: Inhibition of urotensin II-related peptide-induced contraction in Sprague-Dawley rat aortic rings assessed as Emax for urotensin II-related peptide relative to KCl-induced contraction (reference value: 8.07 +/- 0.03)
# Aorta [5] = test: Induction of contraction in Sprague-Dawley rat aortic rings at 30 umol relative to KCl-induced contraction
# Aorta [6] = test: Induction of contraction in Sprague-Dawley rat aortic rings at 25 umol relative to KCl-induced contraction
Compound,Emax (Aorta [1]),EC50 (Aorta [2]),Emax (Aorta [3]),EC50 (Aorta [4]),Activity (Aorta [5]),Activity (Aorta [6])
NCCCC[C@@H]1NC(=O)[C@H](Cc2c[nH]c3ccccc23)NC(=O)Cn2cc(nn2)CNC(=O)[C@H](Cc2ccc(O)cc2)NC1=O,90%,1.35 nM,97%,3.02 nM,Active,
NCCCC[C@@H]1NC(=O)[C@H](Cc2c[nH]c3ccccc23)NC(=O)[C@H](Cc2ccccc2)NC(=O)Cn2cc(nn2)CNC(=O)[C@H](Cc2ccc(O)cc2)NC1=O (cyclo(FWKY[X1])),54%,4.27 nM,96%,0.501 nM,,Active
